{"source": "patent US20040009602A1", "about": "“DNA modifying molecules and methods of use thereof” (The Government of the U.S.A. as represented by the …, priority 2002, published 2004)", "test_system": "HPRT gene", "assay": "Hprt mutation assay in synchronized CHO cells", "format": "cell-based, Chinese Hamster", "protocol": "Synchronization protocol: Chinese Hamster Ovary (CHO) AA8 cells (ATCC) were prepared as described above for the HPRT knockout assay. The cells were synchronized in G0/G1 by a variation of the method described by Sawai et al. (96). Briefly, cells were plated at subconfluent levels and the next day the medium changed to DMEM with 2% FBS and 2% DMSO. After 48 h the cells were washed (˜85% G0/G1 cells by FACS analysis) and either electroporated or fed with complete medium (for G1 phase experiments), or incubated with complete medium containing 100 μM mimosine for 16 hrs to block them in early S phase (˜90% early S cells). See Orren et al. for complete details on this procedure (49). After 16 hrs the cells were released from the mimosine block by feeding with DMEM/10% FBS. TFO electroporation, Psoralen treatment, and Hprt mutation assay: Cells were suspended at 10^7/mL and mixed with TFO at 5 μM. The cells were electroporated (BioRad), followed by incubation at room temperature for 3 hrs, and a 3 min exposure in a Rayonet chamber to UVA light at 1.8 J/cm^2. […] Cells treated with free psoralen were incubated with 5 μM psoralen for 30 min, followed by UVA treatment. The cells were passaged and then exposed to thioguanine (TG) selection (43)."}
{"smiles": "O=c1ccc2cc3ccoc3cc2o1", "note": "[psoralen]", "values": [{"measurement": "frequency of thioguanine resistant colonies", "setting": "5 μM free psoralen 30 min, UVA, different phases of cell cycle, background 0.001%", "result": "0.004-0.005%"}, {"measurement": "cell cycle variability of mutation frequency", "setting": "free psoralen/UVA", "result": "essentially unchanged across the cell cycle"}]}
